SMILES strings stand for the structures.

The term IC50 denotes the concentration at which inhibition is half-maximal.

For this assay, the target named is T1, factor D (Homo sapiens, UniProt P00746).
T1 construct: made in house; host or cells: E. coli
T1 sequence (P00746 26-253): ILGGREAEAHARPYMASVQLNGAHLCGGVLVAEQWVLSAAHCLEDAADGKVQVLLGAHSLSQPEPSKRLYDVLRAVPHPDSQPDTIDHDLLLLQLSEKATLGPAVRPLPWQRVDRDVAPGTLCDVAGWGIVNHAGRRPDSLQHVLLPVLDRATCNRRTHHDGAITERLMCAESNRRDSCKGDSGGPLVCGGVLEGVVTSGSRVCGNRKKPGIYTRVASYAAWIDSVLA
The assay is described as follows: factor D inhibition assay of Biological Example 2. The assay is classed as biochemical.
For the compound `NCc1cc(F)cc(-c2csc(C(=O)Nc3ccccc3CC(=O)O)n2)c1` [Example 28-B, 2-(2-(4-(3-(aminomethyl)-5-fluorophenyl)thiazole-2-carboxamido)phenyl)acetic acid], the IC50 amounted to 57 nM.
In the case of `NCc1cc(F)cc(-c2nc(C(=O)Nc3ccccc3CC(=O)O)cs2)c1` [Example 29, 2-(2-(2-(3-(aminomethyl)-5-fluorophenyl)thiazole-4-carboxamido)phenyl)acetic acid] it was 62 nM; in that of `NCc1cc(F)cc(-c2nc(C(=O)Nc3ccccc3CC(=O)O)c(Cl)s2)c1` [Example 30-D, 2-(2-(2-(3-(aminomethyl)-5-fluorophenyl)-5-chlorothiazole-4-carboxamido)phenyl)acetic acid], 31 nM; in that of `CNc1sc(-c2cc(F)cc(CN)c2)nc1C(=O)Nc1ccccc1CC(=O)O` [Example 31-B, 2-(2-(2-(3-(aminomethyl)-5-fluorophenyl)-5-(methylamino)thiazole-4-carboxamido)phenyl)acetic acid], 16 nM.
The compound `NCc1cc(F)cc(-c2nc(C(=O)Nc3ccccc3CC(=O)O)c(N3CCOCC3)s2)c1` [Example 32, 2-(2-(2-(3-(aminomethyl)-5-fluorophenyl)-5-morpholinothiazole-4-carboxamido)phenyl)acetic acid] yielded an IC50 of 49 nM.
In turn, `NCc1cc(F)cc(-c2nc(C(=O)Nc3ccccc3CC(=O)O)c(NC[C@@H]3CCCO3)s2)c1` [Example 33, (S)-2-(2-(2-(3-(Aminomethyl)-5-fluorophenyl)-5-(((tetrahydrofuran-2-yl)methyl)amino)thiazole-4-carboxamido)phenyl)acetic acid] came in with an IC50 of 7 nM.
For the compound `CNc1sc(-c2cc(F)cc(CN)c2)nc1C(=O)Nc1cc(C)ccc1CC(=O)O` [Example 34-C, 2-(2-(2-(3-(Aminomethyl)-5-fluorophenyl)-5-(methylamino)thiazole-4-carboxamido)-4-methylphenyl)acetic acid], the IC50 is 5 nM.
The value for `NCc1cc(F)cc(-c2nc(C(=O)Nc3ccccc3CC(=O)O)c(C3CC3)s2)c1` [Example 35-B, 2-(2-(2-(3-(Aminomethyl)-5-fluorophenyl)-5-cyclopropylthiazole-4-carboxamido)phenyl)acetic acid] was 13 nM; that for `CCc1sc(-c2cc(F)cc(CN)c2)nc1C(=O)Nc1ccccc1CC(=O)O` [Example 36-C, 2-(2-(2-(3-(Aminomethyl)-5-fluorophenyl)-5-ethylthiazole-4-carboxamido)phenyl)acetic acid] was 36 nM.
`NCc1cccc(-c2cccc(C(=O)Nc3ccccc3CC(=O)O)c2)c1F` [Example 37, 2-(2-(3′-(Aminomethyl)-2′-fluoro-[1,1′-biphenyl]-3-ylcarboxamido)phenyl)acetic acid] returned a half-inhibitory concentration (IC50) of 41 nM.
`NCc1cccc(-c2cc(C(=O)Nc3ccccc3CC(=O)O)ccn2)c1` [Example 38, 2-(2-(2-(3-(Aminomethyl)phenyl)isonicotinamido)phenyl)acetic acid] returned an IC50 of 14300 nM.
`NCc1cccc(-c2ccnc(C(=O)Nc3ccccc3CC(=O)O)c2)c1` [Example 39, 2-(2-(4-(3-(Aminomethyl)phenyl)picolinamido)phenyl)acetic acid]: the midpoint of inhibition, the IC50, lay at 40500 nM.
In the case of `NCc1cccc(-c2cncc(C(=O)Nc3ccccc3CC(=O)O)c2)c1` [Example 40, 2-(2-(5-(3-(Aminomethyl)phenyl)nicotinamido)phenyl)acetic acid], half-maximal inhibition (IC50) required 12800 nM.
On to `NCc1cccc(-c2cc(Cl)cc(C(=O)Nc3ccccc3CC(=O)O)n2)c1` [Example 41, 2-(2-(6-(3-(Aminomethyl)phenyl)-4-chloropicolinamido)phenyl)acetic acid], for which the IC50 stood at 74 nM.
For `NCc1cccc(-c2cc(C(=O)Nc3ccccc3CC(=O)O)nc(-c3cccc(CN)c3)c2)c1` [Example 42, 2-(2-(4,6-bis(3-(Aminomethyl)phenyl)picolinamido)phenyl)acetic acid], inhibition was half-maximal at 13 nM (IC50).
`NCc1cccc(-c2nc(C(=O)Nc3ccccc3CC(=O)O)c[nH]2)c1` [Example 43, 2-(2-(2-(3-(Aminomethyl)phenyl)-1H-imidazole-4-carboxamido)phenyl)acetic acid] displayed an IC50 of 1130 nM.
In turn, `NCc1cccc(-c2cc(N3CCOCC3)cc(C(=O)Nc3ccccc3CC(=O)O)n2)c1` [Example 44, 2-(2-(6-(3-(Aminomethyl)phenyl)-4-morpholinopicolinamido)phenyl)acetic acid] came in with a half-inhibitory concentration (IC50) of 9 nM.
`NCc1cccc(-c2cc(NC[C@@H]3CCCO3)cc(C(=O)Nc3ccccc3CC(=O)O)n2)c1` [Example 45, (S)-2-(2-(6-(3-(Aminomethyl)phenyl)-4-(((tetrahydrofuran-2-yl)methyl)amino)picolinamido)phenyl)acetic acid] came in with an IC50 of 12 nM.
In the case of `CNc1cc(C(=O)Nc2ccccc2CC(=O)O)nc(-c2cccc(CN)c2)c1` [Example 46, 2-(2-(6-(3-(aminomethyl)phenyl)-4-(methylamino)picolinamido)phenyl)acetic acid] it was 6 nM; in that of `NCc1cccc(-c2c[nH]c(C(=O)Nc3ccccc3CC(=O)O)n2)c1` [Example 47, 2-(2-(4-(3-(Aminomethyl)phenyl)-1H-imidazole-2-carboxamido)phenyl)acetic acid], 1930 nM; in that of `NCc1cccc(-c2cccc(S(=O)(=O)Nc3ccccc3CC(=O)O)c2)c1` [Example 48, 2-(2-(3′-(Aminomethyl)-[1,1′-biphenyl]-3-ylsulfonamido)phenyl)acetic acid], 2890 nM.
Regarding `NCc1cc(F)cc(-c2cccc(S(=O)(=O)Nc3ccccc3CC(=O)O)c2)c1` [Example 49, 2-(2-(3′-(aminomethyl)-5′-fluoro-[1,1′-biphenyl]-3-ylsulfonamido)phenyl)acetic acid], it took 2270 nM to reach half-maximal inhibition (IC50).
`NCc1cccc(-c2cc(NC3CC3)cc(C(=O)Nc3ccccc3CC(=O)O)n2)c1` [Example 50, 2-(2-(6-(3-(aminomethyl)phenyl)-4-(cyclopropylamino)picolinamido)phenyl)acetic acid]: half-maximal inhibition (IC50) was put at 2 nM.
With `NCc1cccc(-c2cc(N3CCN(c4ccccc4)CC3)cc(C(=O)Nc3ccccc3CC(=O)O)n2)c1` [Example 51, 2-(2-(6-(3-(Aminomethyl)phenyl)-4-(4-phenylpiperazin-1-yl)picolinamido)phenyl)acetic acid], the IC50 came out at 6 nM.
Turning to `NCc1cccc(-c2cc(-c3ccccc3)cc(C(=O)Nc3ccccc3CC(=O)O)n2)c1` [Example 52, 2-(2-(6-(3-(Aminomethyl)phenyl)-4-phenylpicolinamido)phenyl)acetic acid], the IC50 stood at 7 nM.
The compound `NCc1cccc(-c2cc(NCc3ccccc3)cc(C(=O)Nc3ccccc3CC(=O)O)n2)c1` [Example 53, 2-(2-(6-(3-(Aminomethyl)phenyl)-4-(benzylamino)picolinamido)phenyl)acetic acid] yielded an IC50 of 3 nM.
`NCc1cccc(-c2cc(NCC(F)(F)F)cc(C(=O)Nc3ccccc3CC(=O)O)n2)c1` [Example 54, 2-(2-(6-(3-(Aminomethyl)phenyl)-4-((2,2,2-trifluoroethyl)amino)picolinamido)phenyl)acetic acid]: the IC50 came to 3 nM.
As for `NCc1cccc(-c2cc(O)cc(C(=O)Nc3ccccc3CC(=O)O)n2)c1` [Example 55, 2-(2-(6-(3-(Aminomethyl)phenyl)-4-hydroxypicolinamido)phenyl)acetic acid], half-maximal inhibition (IC50) was put at 13 nM.

Source of the values: US20160145247A1, “Aminomethyl-Biaryl Derivatives Complement Factor D inhibitors and uses thereof” (NOVARTIS AG, priority 2013, published 2016).
